Tests used:
[1] = tested on: caspase-3/7 in PC-3 cells; assay: Caspase-Glo 3/7 bioluminescent assay, PC-3; format: cell-based, human
Protocol: (§1) A time-dependent study of caspase-3/7, -8, and -9 activities was performed in triplicates using assay kits Caspase-Glo 3/7, 8, and 9 (Promega Corp.,Madison,WI, USA) on white 96-well microplate as described previously. A total of 10,000 cells per well was seeded and treated with […] of subditine (1) for 6, 12, 18, 24, and 30 hours. Then, 100 µL of the caspase-Glo reagent was added, incubated at room temperature for 30 minutes and measured using Tecan Infinite 200 Pro (Tecan, Mannedorf, Swizerland) microplate reader.

[2] = tested on: glutathione reductase (GR) gene expression in LNCaP cells; assay: Oxidative stress and antioxidant defense qPCR-array, LNCaP; format: cell-based, human; conditions: 12.5 µM, 18 h, relative to control cells
Protocol: LNCaP and PC-3 cells were treated with subditine (1) (12.5 µM) for 18 h. RNA was extracted from PC-3 or LNCaP cells using RNeasy plus mini kit (Qiagen). 1 µg of RNA was reverse transcribed into cDNA using the RT2 first strand kit (SA Biosciences, Qiagen).cDNA was mixed with RT2 Real Time™ SYBR Green/fluorescein PCR master-mix and loaded into each 96 wells of the Human Oxidative Stress and Antioxidant Defense qPCR array according to the manufacturer’s protocol (SA Biosciences, Qiagen). Briefly, a total volume of 25 µl of PCR mixture, which included 12.5 µl of mastermix, 11.5 µl of double distilled water, and 1 µl of cDNA was loaded into each of the 96wells. qPCR were done using StepOne PLUS real-time PCR machine (Applied Biosystems). PCR amplification was conducted at 95°C for 10 min, followed by 40 cycles of 95°C for 15 sec and 60°C for 1 min. The mRNA expression for each gene was normalized using the average expression of five housekeeping genes:
β-actin (ACTB), β-2-microglobulin (β2M), hypoxanthine phosphoribosyltransferase 1 (HPRT1), ribosomal protein L13a (RPL13A) and glyceraldehyde-3-phosphate dehydrogenase (GAPDH). The ΔΔCt method was used for data analysis. Fold changes were calculated for each gene as the difference in gene expression between subditine (1) or non-treated control using the RT Profiler qPCR-array data analysis software.

[3] = tested on: Bcl-xL expression in LNCaP cells; assay: Western blotting, Bcl-xL in LNCaP; format: cell-based, human; conditions: 24 h
Protocol: (§2) To determine protein expression, 1×10^6 cells/mL were seeded and treated with subditine (1) or paclitaxel for 24 h. Whole cell extracts were prepared as previously described. Briefly, cells were collected, lysed and resolved on 10% SDS-polyacrylamide gels. After electrophoresis, the proteins were transferred to PVDF membranes (Millipore), blocked with 5% nonfat dry milk in PBS-T (0.05% Tween 20) for 1 hour at room temperature. Membranes were probed with primary rabbit anti-Bcl-2, Bcl-xL or p53 antibodies followed by horseradish peroxidase (HRP)-conjugated secondary anti-rabbit antibody (Cell Signaling Technology Inc., CA, USA). Membranes were stripped and reprobed with mouse anti-β-actin antibody as loading control (Santa Cruz Biotechnology Inc.). Protein-antibody complexes were detected with Amersham ECL prime Western blotting detection reagent (GE Healthcare, USA).

caspase-8 in LNCaP cells = assay: Caspase-Glo 8 bioluminescent assay, LNCaP; format: cell-based, human; conditions: 12.5 µM, throughout 30 hours
Protocol: as §1

[4] = tested on: RWPE-1 human normal prostate epithelial cells; assay: MTT cell proliferation assay, RWPE-1; format: cell-based; conditions: 24 hours, RWPE-1 normal cells, mean ± S.D.
Protocol: Human prostate normal cell line (RWPE-1) and human prostate cancer cell lines; LNCaP and PC-3, were purchased from the American Type Culture Collection (ATCC, Manassas, Virginia, USA). LNCaP and PC-3 cells were grown in Roswell Park Memorial Institute medium (RPMI) supplemented with 10% heat-inactivated fetal bovine serum (FBS, Sigma-Aldrich, St. Louis, MO), 1% penicillin and streptomycin. RWPE-1 cells were maintained in Keratinocyte Serum Free Medium (K-SFM, ATCC) supplemented with bovine pituitary extract (BPE) and human recombinant epidermal growth factor (EGF). Mediums were supplemented with 10% heat-inactivated fetal calf serum (Sigma.), 100 U/ml penicillin and […] streptomycin (Flowlab, Sydney, Australia). All cells were maintained in a humidified atmosphere of 5% CO2 in air at 37°C incubator.
The anti-proliferative activity was evaluated by performing MTT assays as previously described with minor modifications. Briefly, cells were seeded 24 hours prior to treatment in a 96-well plate at 5×10^4 cells/well in order to obtain 70% to 80% confluent cultures. The compounds were dissolved in DMSO (Sigma Chemical Co., St. Louis, Missouri, USA) followed by a 2×serial dilution for 10 points ranged from 0.825 µM to 100 µM. The 96-well plate was incubated for 24 hours at 37°C in a humidified atmosphere with 5% CO2. At the end of incubation, 50 µl of MTT solution (2 mg/ml; Sigma) was added to each well. The plate was then incubated for 4 hours. All medium was removed and the purple formazan crystal formed at the bottom of the wells was dissolved with 200 µl DMSO for 20 minutes. The absorbance at 570 nm was read on a spectrophotometric plate reader (Hidex). The proportion of surviving cells was calculated as: […]
Dose-response curves were constructed to obtain the IC50 values. Experimental data were derived from 3 independent experiments. The selectivity index was obtained by mean IC50 RWPE-1/mean IC50 of LNCaP or PC-3.

[5] = tested on: Bcl-2 expression in PC-3 cells; assay: Western blotting, Bcl-2 in PC-3; format: cell-based, human; conditions: 24 h
Protocol: as §2

[6] = tested on: p53 expression in LNCaP cells; assay: Western blotting, p53 in LNCaP; format: cell-based, human; conditions: LNCaP (p53-wild-type), 24 h
Protocol: as §2

caspase-8 in PC-3 cells = assay: Caspase-Glo 8 bioluminescent assay, PC-3; format: cell-based, human; conditions: PC-3, 12.5 µM, throughout 30 hours
Protocol: as §1

For `Cc1ncc2c(=O)n3c(cc2c1C=O)-c1[nH]c2ccccc2c1CC3` [Subditine, subditine], the caspase-3/7 activity ([1]; PC-3, after 12 and 24 hours exposure, 12.25 µM) was “significant increase”, the “time of peak caspase-3/7 activity” value ([1]; PC-3, time points 6-30 hours) was 18 h and the “glutathione reductase (GR) gene expression fold change” value [2] was > 100 fold. The Bcl-xL expression [3] was “down-regulation”, the “caspase 8 activity” value (caspase-8 in LNCaP cells) was “No significant fold-change” and the IC50 [4] was 30.48 ± 0.08 µM. The Bcl-2 protein expression ([5]; PC-3, 12.5 µM, compared to control) was “no significant change”, the Bcl-2 protein expression ([5]; PC-3, 25 and 50 µM) was “drastically down-regulated” and the p53 expression [6] was “up-regulate”. For the same compound, the “caspase 8 activity” value (caspase-8 in PC-3 cells) was “No significant fold-change”.

Reference: article PMC3925085, “Subditine, a New Monoterpenoid Indole Alkaloid from Bark of Nauclea subdita (Korth.) Steud. Induces Apoptosis in Human Prostate Cancer Cells” (PLoS ONE, 2014)
